The nature of data set [1]: Inhibition of EV71 3C protease using NMA-IEALFQGPPK(DNP)FR as substrate preincubated for 30 mins followed by addition of substrate measured after 2 hrs by FRET assay. More on the design: species or system Enterovirus A71.
The nature of data set [2]: Cytotoxicity against human RD cells assessed viable cells after 24 hrs by WST-1 assay. The class given is cell-based.
The next data set concerns Enterovirus A71. The experiment in a line: Antiviral activity against EV71 pseudotype virus infected in RD cells after 24 hrs by Bright-Glo luciferase assay. The class given is functional, organism-based. The settings on record: Enterovirus A.

The results in this text go back to ChEMBL document CHEMBL3779807, “Synthesis and structure-activity relationship of α-keto amides as enterovirus 71 3C protease inhibitors” (Bioorg Med Chem Lett, 2016).

A value given as a limit tells only on which side of the number the result lay.

`CC(C)(C)OC(=O)N[C@@H](Cc1ccc(F)cc1)C(=O)N[C@@H](C[C@@H]1CCCNC1=O)C(=O)C(=O)NC1CC1` yielded an IC50 in data set [1] of 1.78 µM. This compound also registered a CC50 at 24 h in data set [2] above 100 µM. The compound further gave an EC50 with Enterovirus A71 of 1.68 µM.

With `CCCCNC(=O)C(=O)[C@H](C[C@@H]1CCCNC1=O)NC(=O)[C@H](Cc1ccccc1)NC(=O)/C=C/c1ccccc1`, the IC50 in data set [1] amounted to 8.21 µM. In addition, the CC50 at 24 h in data set [2] is above 100 µM. For the same compound, in the data set with Enterovirus A71, the EC50 stood at 11.6 µM.

For the compound `CC(C)CNC(=O)C(=O)[C@H](C[C@@H]1CCCNC1=O)NC(=O)[C@H](Cc1ccccc1)NC(=O)/C=C/c1ccccc1`, in data set [1], the IC50 amounted to 5.07 µM. Further, in data set [2], the CC50 at 24 h was above 100 µM. For the same compound, in the data set with Enterovirus A71, the EC50 turned out to be 11 µM.

In data set [1], `CCCCNC(=O)C(=O)[C@H](C[C@@H]1CCNC1=O)NC(=O)[C@H](Cc1ccccc1)NC(=O)/C=C/c1ccccc1` registered an IC50 of 17.6 µM. In data set [2], this compound came in with a CC50 at 24 h above 100 µM. The EC50 with Enterovirus A71 was 15.5 µM.

In the case of `CCCCCCNC(=O)C(=O)[C@H](C[C@@H]1CCCNC1=O)NC(=O)[C@H](Cc1ccccc1)NC(=O)/C=C/c1ccccc1`, the IC50 in data set [1] was above 20 µM. Moreover, in data set [2], the CC50 at 24 h was above 100 µM. The concentration for a half-maximal effect (EC50) with Enterovirus A71 is above 20 µM.

Take `CC(C)NC(=O)C(=O)[C@H](C[C@@H]1CCCNC1=O)NC(=O)[C@H](Cc1ccccc1)NC(=O)/C=C/c1ccccc1`: in data set [1], the IC50 was determined as 1.34 µM. This compound displayed a cytotoxic concentration (CC50) at 24 h in data set [2] above 100 µM. The same compound came in with an EC50 in the data set with Enterovirus A71 of 1.66 µM.

Compound `O=C(/C=C/c1ccccc1)N[C@@H](Cc1ccccc1)C(=O)N[C@@H](C[C@@H]1CCNC1=O)C(=O)C(=O)Nc1ccccc1` gave an IC50 in data set [1] above 20 µM. Besides, the CC50 at 24 h in data set [2] was above 100 µM. Moreover, the EC50 with Enterovirus A71 is above 20 µM.

Compound `CC(C)NC(=O)C(=O)[C@H](C[C@@H]1CCCNC1=O)NC(=O)[C@H](Cc1ccc(F)cc1)NC(=O)/C=C/c1ccccc1` displayed an IC50 in data set [1] of 1.32 µM. In addition, in data set [2], the CC50 at 24 h is above 100 µM. For the same compound, in the data set on Enterovirus A71, a half-maximal response (EC50) required 1.12 µM.

`O=C(/C=C/c1ccccc1)NC(Cc1ccccc1)C(=O)NC(CC1CCNC1=O)C(=O)C(=O)NCc1ccccc1` (single isomer, unassigned) came in with an IC50 in data set [1] above 20 µM. In addition, the CC50 at 24 h in data set [2] is above 100 µM. In addition, the EC50 in the data set with Enterovirus A71 was above 20 µM.

Turning to `O=C(/C=C/c1ccccc1)N[C@@H](Cc1ccccc1)C(=O)N[C@@H](C[C@@H]1CCCNC1=O)C(=O)C(=O)NCc1ccco1`, in data set [1], the 50% inhibitory concentration (IC50) amounted to 6.3 µM. In data set [2], this compound showed a CC50 at 24 h above 100 µM. For the same compound, in the data set on Enterovirus A71, the EC50 was 4.5 µM.

For `O=C(/C=C/c1ccccc1)N[C@@H](Cc1ccccc1)C(=O)N[C@@H](C[C@@H]1CCCNC1=O)C(=O)C(=O)NCc1ccccc1`, the IC50 in data set [1] turned out to be 7.83 µM. This compound also gave a half-maximal cytotoxic concentration (CC50) at 24 h in data set [2] above 100 µM. The same compound displayed an EC50 with Enterovirus A71 of 5.42 µM.

In turn, `O=C(/C=C/c1ccccc1)N[C@@H](Cc1ccccc1)C(=O)N[C@@H](C[C@@H]1CCCNC1=O)C(=O)C(=O)NC1CC1` came in with a concentration for half-maximal inhibition (IC50) in data set [1] of 3.32 µM. For the same compound, the half-maximal cytotoxic concentration (CC50) at 24 h in data set [2] is above 100 µM. Also, it took 3.57 µM to reach a half-maximal effect with Enterovirus A71 (EC50).

Turning to `CCCNC(=O)C(=O)[C@H](C[C@@H]1CCCNC1=O)NC(=O)[C@H](Cc1ccccc1)NC(=O)/C=C/c1ccccc1`, the IC50 in data set [1] was determined as 6.22 µM. The CC50 at 24 h in data set [2] was above 100 µM. Besides, in the data set on Enterovirus A71, the EC50 came to 4.59 µM.

As for `O=C(/C=C/c1ccccc1)N[C@@H](Cc1ccccc1)C(=O)N[C@@H](C[C@@H]1CCNC1=O)C(=O)C(=O)NC1CCCCC1`, inhibition in data set [1] was half-maximal at 12.7 µM (IC50). In addition, the CC50 at 24 h in data set [2] was above 100 µM. The EC50 in the data set on Enterovirus A71 is 8.12 µM.

In turn, `CC(C)NC(=O)C(=O)[C@H](CC1CCCNC1=O)NC(=O)[C@H](Cc1ccc(F)cc1)NC(=O)OCc1ccccc1` (single isomer, unassigned) returned an IC50 in data set [1] of 1.42 µM. This compound had a CC50 at 24 h in data set [2] above 100 µM. This compound also gave an EC50 in the data set on Enterovirus A71 of 1.32 µM.

With `CCCCCCCCCCCCNC(=O)C(=O)[C@H](C[C@@H]1CCCNC1=O)NC(=O)[C@H](Cc1ccccc1)NC(=O)/C=C/c1ccccc1`, the IC50 in data set [1] was above 20 µM. This compound yielded a CC50 at 24 h in data set [2] above 100 µM. Besides, in the data set on Enterovirus A71, the EC50 is above 20 µM.

`CCCNC(=O)C(=O)[C@H](C[C@@H]1CCCNC1=O)NC(=O)[C@H](Cc1ccc(F)cc1)NC(=O)/C=C/c1ccccc1` registered an IC50 in data set [1] of 1.88 µM. Besides, in data set [2], the CC50 at 24 h is above 100 µM. Further, the midpoint of the response in the data set with Enterovirus A71, the EC50, lay at 1.08 µM.

`Cc1ccc(NC(=O)C(=O)[C@H](C[C@@H]2CCCNC2=O)NC(=O)[C@H](Cc2ccccc2)NC(=O)/C=C/c2ccccc2)cc1` came in with a 50% inhibitory concentration (IC50) in data set [1] above 20 µM. Besides, the CC50 at 24 h in data set [2] was above 100 µM. Also, in the data set on Enterovirus A71, the EC50 is above 20 µM.

On to `O=C(/C=C/c1ccccc1)NC(Cc1ccccc1)C(=O)NC(CC1CCCNC1=O)C(=O)C(=O)Nc1ccc([N+](=O)[O-])cc1` (single isomer, unassigned), for which the IC50 in data set [1] was above 20 µM. Also, in data set [2], the CC50 at 24 h was above 100 µM. This compound also returned an EC50 in the data set on Enterovirus A71 above 20 µM.

`CNC(=O)C(=O)[C@H](C[C@@H]1CCCNC1=O)NC(=O)[C@H](Cc1ccccc1)NC(=O)/C=C/c1ccccc1` showed a half-inhibitory concentration (IC50) in data set [1] of 4.08 µM. Also, the CC50 at 24 h in data set [2] was above 100 µM. In the data set with Enterovirus A71, the EC50 is 9.59 µM.

Turning to `O=C(/C=C/c1ccccc1)N[C@@H](Cc1ccc(F)cc1)C(=O)N[C@@H](C[C@@H]1CCCNC1=O)C(=O)C(=O)NC1CCCCC1`, in data set [1], 3.71 µM corresponded to half-maximal inhibition (IC50). In addition, the CC50 at 24 h in data set [2] was above 100 µM. The concentration giving a half-maximal response (EC50) in the data set on Enterovirus A71 stood at 2.78 µM.

In data set [1], `CC(C)(C)NC(=O)C(=O)[C@H](C[C@@H]1CCCNC1=O)NC(=O)[C@H](Cc1ccccc1)NC(=O)/C=C/c1ccccc1` gave a half-inhibitory concentration (IC50) above 20 µM. In addition, the CC50 at 24 h in data set [2] was above 100 µM. For the same compound, in the data set with Enterovirus A71, the EC50 was above 20 µM.

Take `CC(C)NC(=O)C(=O)[C@H](C[C@@H]1CCNC1=O)NC(=O)[C@H](Cc1ccccc1)NC(=O)/C=C/c1ccccc1`: the IC50 in data set [1] came to 8.75 µM. In addition, in data set [2], the CC50 at 24 h was above 100 µM. The same compound registered an EC50 with Enterovirus A71 of 6.45 µM.

For the compound `O=C(/C=C/c1ccccc1)N[C@@H](Cc1ccccc1)C(=O)N[C@@H](C[C@@H]1CCCNC1=O)C(=O)C(=O)Nc1ccccc1`, in data set [1], the IC50 is above 20 µM. In data set [2], this compound came in with a CC50 at 24 h above 100 µM. This compound had an EC50 in the data set with Enterovirus A71 above 20 µM.

Take `CCCCCNC(=O)C(=O)[C@H](C[C@@H]1CCCNC1=O)NC(=O)[C@H](Cc1ccccc1)NC(=O)/C=C/c1ccccc1`: the IC50 in data set [1] is above 20 µM. Further, in data set [2], the CC50 at 24 h is above 100 µM. Further, the EC50 in the data set with Enterovirus A71 was above 20 µM.

Consider `O=C(/C=C/c1ccccc1)N[C@@H](Cc1ccc(F)cc1)C(=O)N[C@@H](C[C@@H]1CCCNC1=O)C(=O)C(=O)NC1CC1`, for which the 50% inhibitory concentration (IC50) in data set [1] was found to be 1.52 µM. The same compound gave a CC50 at 24 h in data set [2] above 100 µM. The EC50 with Enterovirus A71 amounted to 1.55 µM.

The compound `O=C(/C=C/c1ccccc1)N[C@@H](Cc1ccccc1)C(=O)N[C@@H](C[C@@H]1CCCNC1=O)C(=O)C(=O)NC1CCCCC1` returned an IC50 in data set [1] of 4.86 µM. In data set [2], this compound displayed a CC50 at 24 h above 100 µM. The concentration giving a half-maximal response (EC50) in the data set on Enterovirus A71 worked out at 2.63 µM.
